Measured values taken from US20230056135A1, “MONOMER AND MULTIMERIC ANTI-HBV AGENTS” (priority 2018, published 2023).
Where two headings read alike, the source gives them in different places.

Columns and labels:
Type in all cases: cell-based
[1] = Cellular toxicity assay in human PBM cells; conditions: human PBM cells, read-out: Cytotoxicity, CC50 (μM) PBM
Description: (§1) The toxicity of the compounds was assessed in Vero, human PBM, CEM (human lymphoblastoid), MT-2, and HepG2 cells, as described previously (see Schinazi R. F., Sommadossi J.-P., Saalmann V., Cannon D. L., Xie M.-Y., Hart G. C., Smith G. A. & Hahn E. F. Antimicrob. Agents Chemother. 1990, 34, 1061-67). Cycloheximide was included as positive cytotoxic control, and untreated cells exposed to solvent were included as negative controls. The cytotoxicity IC50 was obtained from the concentration-response curve using the median effective method described previously (see Chou T.-C. & Talalay P. Adv. Enzyme Regul. 1984, 22, 27-55; Belen'kii M. S. & Schinazi R. F. Antiviral Res. 1994, 25, 1-11).

[2] = Cellular toxicity assay in HepG2 cells; conditions: human, HepG2 cells; read-out: Cytotoxicity; CC50 (μM) HepG2
Description: as §1

wild type HBV = test: Anti-HBV assay in AD-38 cell line (HBV in culture supernatant); conditions: for EC50: read-out: Anti-HBV activity EC50; for EC90: read-out: Anti-HBV activity EC90
Description: The anti-HBV activity of the compounds was determined by treating the AD-38 cell line carrying wild type HBV under the control of tetracycline (see Ladner S. K., Otto M. J., Barker C. S., Zaifert K., Wang G. H., Guo J. T., Seeger C. & King R. W. Antimicrob. Agents Chemother. 1997, 41, 1715-20). Removal of tetracycline from the medium [Tet (−)] results in the production of HBV. The levels of HBV in the culture supernatant fluids from cells treated with the compounds were compared with that of the untreated controls. Control cultures with tetracycline [Tet (+)] were also maintained to determine the basal levels of HBV expression. 3TC was included as positive control.
The median effective concentrations (EC50) ranges of several of the compounds described herein against HBV are shown in Table 3: […]

[3] = Hepatitis B virus, AD-38 cell line, Tet (-)

## C#CCn1c(C)c(C(=O)C(=O)NC(C)(C)C#C)c(C)c1C(=O)Nc1ccc(F)c(F)c1 [Compound 120, N-(3,4-Difluorophenyl)-3,5-dimethyl-4-(2-((2-methylbut-3-yn-2-yl)amino)-2-oxoacetyl)-1-(prop-2-yn-1-yl)-1H-pyrrole-2-carboxamide]
[1]; human
  CC50: > 100 µM
[2]
  CC50: > 100 µM
Wild type HBV; [3]
  EC50: 0.01 to 0.1 nM
  EC90: 1 to 10 nM

## Cc1c(C(=O)C(=O)NCc2cn(CCOCCOCCOCCn3cc(CNC(=O)C(=O)c4c(C)c(C(=O)Nc5ccc(F)c(F)c5)n(C)c4C)nn3)nn2)c(C)n(C)c1C(=O)Nc1ccc(F)c(F)c1 [Compound 94, 4,4′-(2,2′-((((((oxybis(ethane-2,1-diyl))bis(oxy))bis(ethane-2,1-diyl))bis(1H-1,2,3-triazole-1,4-diyl))bis(methylene))bis(azanediyl))bis(2-oxoacetyl))bis(N-(3,4-difluorophenyl)-1,3,5-trimethyl-1H-pyrrole-2-carboxamide)]
[1]; human
  CC50: > 100 µM
[2]
  CC50: > 100 µM
Wild type HBV; [3]
  EC50: 1 to 10 nM

## Cc1c(C(=O)C(=O)NCc2cn(CCOCCOCCOCCOCCOCCn3cc(CNC(=O)C(=O)c4c(C)c(C(=O)Nc5ccc(F)c(F)c5)n(C)c4C)nn3)nn2)c(C)n(C)c1C(=O)Nc1ccc(F)c(F)c1 [Compound 95, 4,4′-(2,2′-((((3,6,9,12,15-Pentaoxaheptadecane-1,17-diyl)bis(1H-1,2,3-triazole-1,4-diyl))bis (methylene))bis(azanediyl))bis(2-oxoacetyl))bis(N-(3,4-difluorophenyl)-1,3,5-trimethyl-1H-pyrrole-2-carboxamide)]
Wild type HBV; AD-38 cell line, Tet (-)
  EC50: 10 to 100 nM

## Cc1c(C(=O)C(=O)NCc2cn(CCOCCOCC(COCCOCCN=[N+]=[N-])(COCCOCCN=[N+]=[N-])COCCOCCn3cc(CNC(=O)C(=O)c4c(C)c(C(=O)Nc5ccc(F)c(F)c5)n(C)c4C)nn3)nn2)c(C)n(C)c1C(=O)Nc1ccc(F)c(F)c1 [Compound 108, 4,4′-(2,2′-((((8,8-bis((2-(2-azidoethoxy)ethoxy)methyl)-3,6,10,13-tetraoxapentadecane-1,15-diyl)bis(1H-1,2,3-triazole-1,4-diyl))bis(methylene))bis(azanediyl))bis(2-oxoacetyl))bis(N-(3,4-difluorophenyl)-1,3,5-trimethyl-1H-pyrrole-2-carboxamide)]
[1]; human
  CC50: > 100 µM
[2]
  CC50: > 100 µM
Wild type HBV; [3]
  EC50: 10 to 100 nM
  EC90: 100 to 1000 nM

## Cc1c(C(=O)C(=O)NCc2cn(CCOCCn3cc(CNC(=O)C(=O)c4c(C)c(C(=O)Nc5ccc(F)c(F)c5)n(C)c4C)nn3)nn2)c(C)n(C)c1C(=O)Nc1ccc(F)c(F)c1 [Compound 85, 4,4′-(2,2′-((((oxybis(ethane-2,1-diyl))bis(1H-1,2,3-triazole-1,4-diyl))bis(methylene))bis(azanediyl))bis(2-oxoacetyl))bis(N-(3,4-difluorophenyl)-1,3,5-trimethyl-1H-pyrrole-2-carboxamide)]
Wild type HBV; [3]
  EC50: 1000 to 10000 nM

## Cc1c(C(=O)C(=O)NCc2cn(CCOCCOCC(COCCOCCn3cc(CNC(=O)C(=O)c4c(C)c(C(=O)Nc5ccc(F)c(F)c5)n(C)c4C)nn3)(COCCOCCn3cc(CNC(=O)C(=O)c4c(C)c(C(=O)Nc5ccc(F)c(F)c5)n(C)c4C)nn3)COCCOCCn3cc(CNC(=O)C(=O)c4c(C)c(C(=O)Nc5ccc(F)c(F)c5)n(C)c4C)nn3)nn2)c(C)n(C)c1C(=O)Nc1ccc(F)c(F)c1 [Compound 110]
[1]; human
  CC50: > 100 µM
[2]
  CC50: > 100 µM
Wild type HBV; [3]
  EC50: 100 to 1000 nM
  EC90: 1000 to 10000 nM

## Cc1c(C(=O)C(=O)NCc2cn(CCOCCOCC(COCCOCCn3cc(CNC(=O)C(=O)c4c(C)c(C(=O)Nc5ccc(F)c(F)c5)n(C)c4C)nn3)COCCOCCn3cc(CNC(=O)C(=O)c4c(C)c(C(=O)Nc5ccc(F)c(F)c5)n(C)c4C)nn3)nn2)c(C)n(C)c1C(=O)Nc1ccc(F)c(F)c1 [Compound 122]
Wild type HBV; [3]
  EC50: 100 to 1000 nM

## Cc1c(C(=O)C(=O)NCc2cn(CCOCCOCC(COCCOCCN=[N+]=[N-])(COCCOCCn3cc(CNC(=O)C(=O)c4c(C)c(C(=O)Nc5ccc(F)c(F)c5)n(C)c4C)nn3)COCCOCCn3cc(CNC(=O)C(=O)c4c(C)c(C(=O)Nc5ccc(F)c(F)c5)n(C)c4C)nn3)nn2)c(C)n(C)c1C(=O)Nc1ccc(F)c(F)c1 [Compound 109]
[1]; human
  CC50: > 100 µM
[2]
  CC50: > 100 µM
Wild type HBV; [3]
  EC50: 100 to 1000 nM
  EC90: 1000 to 10000 nM

## CCOP(=O)(Cn1cc(CNC(=O)C(=O)c2c(C)c(C(=O)Nc3ccc(F)c(F)c3)n(C)c2C)nn1)OCC [Compound 68, Diethyl((4-((2-(5-((3,4-difluorophenyl)carbamoyl)-1,2,4-trimethyl-1H-pyrrol-3-yl)-2-oxoacetamido)methyl)-1H-1,2,3-triazol-1-yl)methyl) phosphonate]
[1]
  CC50: 70 µM
[2]
  CC50: > 100 µM
Wild type HBV; Hepatitis B virus
  EC50: 100 to 1000 nM

## Cc1c(C(=O)C(=O)NCc2cn(CCCCCCCCn3cc(CNC(=O)C(=O)c4c(C)c(C(=O)Nc5ccc(F)c(F)c5)n(C)c4C)nn3)nn2)c(C)n(C)c1C(=O)Nc1ccc(F)c(F)c1 [Compound 74, 4,4′-(2,2′-(((Octane-1,8-diylbis(1H-1,2,3-triazole-1,4-diyl))bis(methylene))bis(azanediyl))bis(2-oxoacetyl))bis(N-(3,4-difluorophenyl)-1,3,5-trimethyl-1H-pyrrole-2-carboxamide)]
[1]; human
  CC50: > 100 µM
[2]
  CC50: > 100 µM
Wild type HBV; [3]
  EC50: 0.1 to 1 nM
  EC90: 1 to 10 nM

## Cc1c(C(=O)C(=O)NCc2cn(CCCCCCn3cc(CNC(=O)C(=O)c4c(C)c(C(=O)Nc5ccc(F)c(F)c5)n(C)c4C)nn3)nn2)c(C)n(C)c1C(=O)Nc1ccc(F)c(F)c1 [Compound 71, 4,4′-(2,2′-(((Hexane-1,6-diylbis(1H-1,2,3-triazole-1,4-diyl))bis(methylene))bis(azanediyl))bis(2-oxoacetyl))bis(N-(3,4-difluorophenyl)-1,3,5-trimethyl-1H-pyrrole-2-carboxamide)]
[1]; human
  CC50: > 100 µM
[2]
  CC50: > 100 µM
Wild type HBV; [3]
  EC50: 100 to 1000 nM
  EC90: 1000 to 10000 nM

## C#CCNC(=O)C(=O)c1c(C)c(C(=O)Nc2ccc(F)c(F)c2)n(CC#CC)c1C [Compound 119, 1-(But-2-yn-1-yl)-N-(3,4-difluorophenyl)-3,5-dimethyl-4-(2-oxo-2-(prop-2-yn-1-ylamino)acetyl)-1H-pyrrole-2-carboxamide]
[1]; human
  CC50: > 100 µM
[2]
  CC50: > 100 µM
Wild type HBV; Hepatitis B virus
  EC50: 10 to 100 nM

## Cc1c(C(=O)C(=O)NCc2cn(CCCCCCCCCCn3cc(CNC(=O)C(=O)c4c(C)c(C(=O)Nc5ccc(F)c(F)c5)n(C)c4C)nn3)nn2)c(C)n(C)c1C(=O)Nc1ccc(F)c(F)c1 [Compound 77, 4,4′-(2,2′-(((decane-1,10-diylbis(1H-1,2,3-triazole-1,4-diyl))bis(methylene))bis(azanediyl))bis (2-oxoacetyl))bis(N-(3,4-difluorophenyl)-1,3,5-trimethyl-1H-pyrrole-2-carboxamide)]
[1]; human
  CC50: > 100 µM
[2]
  CC50: > 100 µM
Wild type HBV; [3]
  EC50: 1 to 10 nM
  EC90: 100 to 1000 nM

## Cc1c(C(=O)C(=O)NCc2cn(CCOCCOCCn3cc(CNC(=O)C(=O)c4c(C)c(C(=O)Nc5ccc(F)c(F)c5)n(C)c4C)nn3)nn2)c(C)n(C)c1C(=O)Nc1ccc(F)c(F)c1 [Compound 89, 4,4′-(2,2′-(((((Ethane-1,2-diylbis(oxy))bis(ethane-2,1-diyl))bis(1H-1,2,3-triazole-1,4-diyl))bis (methylene))bis(azanediyl))bis(2-oxoacetyl))bis(N-(3,4-difluorophenyl)-1,3,5-trimethyl-1H-pyrrole-2-carboxamide)]
[1]; human
  CC50: 68 µM
[2]
  CC50: > 100 µM
Wild type HBV; [3]
  EC50: 1000 to 10000 nM

## Nc1ccn([C@@H]2CS[C@H](CO)O2)c(=O)n1 [Compound 3TC, lamivudine, reference compound]
Wild type HBV; [3]
  EC50: 100 to 1000 nM
  EC90: 1000 to 10000 nM
